From ChEMBL document CHEMBL1201861, “Genomics of Drug Sensitity in Cancer screening data, Wellcome Trust Sanger Institute”

How the values were obtained:
Assay in all cases: cells
[1] = tested on: GCIY; assay type: functional, cell-based, Homo sapiens; conditions: Homo sapiens, GCIY;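 note: growth inhibition of the human GCIY cell line, read out by a cell viability assay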
Description: SANGER: Inhibition of human GCIY cell growth in a cell viability assay.

[2] = tested on: IA-LM; assay type: functional, cell-based, Homo sapiens; conditions: Homo sapiens, IA-LM;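 note: cell viability assay measuring growth inhibition of human IA-LM cells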
Description: SANGER: Inhibition of human IA-LM cell growth in a cell viability assay.

[3] = tested on: LB2518-MEL; assay type: functional, cell-based, Homo sapiens; conditions: Homo sapiens, LB2518-MEL;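 note: growth inhibition of human LB2518-MEL cells, measured with a cell viability assay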
Description: SANGER: Inhibition of human LB2518-MEL cell growth in a cell viability assay.

[4] = tested on: SW982; assay type: functional, cell-based, Homo sapiens; conditions: Homo sapiens, SW982;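 note: growth inhibition of SW982 cells, read out with a cell viability assay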
Description: SANGER: Inhibition of human SW982 cell growth in a cell viability assay.

[5] = tested on: LAN-6; assay type: functional, cell-based, Homo sapiens; conditions: Homo sapiens, LAN-6;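 note: growth inhibition of LAN-6 cells, determined with a cell viability assay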
Description: SANGER: Inhibition of human LAN-6 cell growth in a cell viability assay.

[6] = tested on: U-87 MG; assay type: functional, cell-based, Homo sapiens, U-87MG ATCC; conditions: Homo sapiens, U-87 MG;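 note: growth inhibition of the cells measured with a viability assay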
Description: SANGER: Inhibition of human U-87-MG cell growth in a cell viability assay.

[7] = tested on: CW-2; assay type: functional, cell-based, Homo sapiens; conditions: Homo sapiens, CW-2;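 note: growth inhibition of CW-2 cells, read out by a cell viability assay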
Description: SANGER: Inhibition of human CW-2 cell growth in a cell viability assay.

[8] = tested on: D283 Med; assay type: functional, cell-based, Homo sapiens; conditions: Homo sapiens, D283 Med
Description: SANGER: Inhibition of human D-283MED cell growth in a cell viability assay.

[9] = tested on: SW684; assay type: functional, cell-based, Homo sapiens; conditions: Homo sapiens, SW684;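 note: growth inhibition of human SW684 cells, measured by a cell viability assay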
Description: SANGER: Inhibition of human SW684 cell growth in a cell viability assay.

[10] = tested on: NH-12; assay type: functional, cell-based, Homo sapiens; conditions: Homo sapiens, NH-12;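 note: growth inhibition of NH-12 cells, read out with a cell viability assay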
Description: SANGER: Inhibition of human NH-12 cell growth in a cell viability assay.

[11] = tested on: NCI-H69; assay type: functional, cell-based, Homo sapiens; conditions: Homo sapiens, NCI-H69;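 note: growth inhibition of the cell line, read out with a cell viability assay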
Description: SANGER: Inhibition of human NCI-H69 cell growth in a cell viability assay.

[12] = tested on: MSTO-211H; assay type: functional, cell-based, Homo sapiens; conditions: Homo sapiens, MSTO-211H
Description: SANGER: Inhibition of human MSTO-211H cell growth in a cell viability assay.

[13] = tested on: COLO-684; assay type: functional, cell-based, Homo sapiens; conditions: Homo sapiens, COLO-684
Description: SANGER: Inhibition of human COLO-684 cell growth in a cell viability assay.

[14] = tested on: NCI-H2126; assay type: functional, cell-based, Homo sapiens; conditions: Homo sapiens, NCI-H2126;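 note: growth inhibition of the cancer cell line, determined with a cell viability readout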
Description: SANGER: Inhibition of human NCI-H2126 cell growth in a cell viability assay.

[15] = tested on: NCI-H1155; assay type: functional, cell-based, Homo sapiens; conditions: Homo sapiens, NCI-H1155;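 note: cell growth inhibition measured by a viability assay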
Description: SANGER: Inhibition of human NCI-H1155 cell growth in a cell viability assay.

[16] = tested on: SK-NEP-1; assay type: functional, cell-based, Homo sapiens; conditions: Homo sapiens, SK-NEP-1;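 note: growth inhibition of human SK-NEP-1 cells, read out by a cell viability assay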
Description: SANGER: Inhibition of human SK-NEP-1 cell growth in a cell viability assay.

[17] = tested on: SNU1; assay type: functional, cell-based, Homo sapiens; conditions: Homo sapiens, SNU1;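 note: growth inhibition of human NCI-SNU-1 cells, measured with a cell viability assay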
Description: SANGER: Inhibition of human NCI-SNU-1 cell growth in a cell viability assay.

[18] = tested on: NB5; assay type: functional, cell-based, Homo sapiens; conditions: Homo sapiens, NB5;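 note: growth inhibition of NB5 cells, read out as cell viability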
Description: SANGER: Inhibition of human NB5 cell growth in a cell viability assay.

[19] = tested on: HEL; assay type: functional, cell-based, Homo sapiens; conditions: Homo sapiens, HEL;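 note: growth inhibition of HEL cells, read out with a cell viability assay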
Description: SANGER: Inhibition of human HEL cell growth in a cell viability assay.

[20] = tested on: AM-38; assay type: functional, cell-based, Homo sapiens; conditions: Homo sapiens, AM-38;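 note: growth inhibition of AM-38 cells of human origin, read out by a cell viability assay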
Description: SANGER: Inhibition of human AM-38 cell growth in a cell viability assay.

[21] = tested on: MN-60; assay type: functional, cell-based, Homo sapiens; conditions: Homo sapiens, MN-60;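 note: growth inhibition of the MN-60 cell line, determined with a cell viability assay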
Description: SANGER: Inhibition of human MN-60 cell growth in a cell viability assay.

[22] = tested on: MHH-PREB-1; assay type: functional, cell-based, Homo sapiens; conditions: Homo sapiens, MHH-PREB-1;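 note: cell viability assay measuring inhibition of proliferation of human MHH-PREB-1 cells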
Description: SANGER: Inhibition of human MHH-PREB-1 cell growth in a cell viability assay.

[23] = tested on: EC-GI-10; assay type: functional, cell-based, Homo sapiens; conditions: Homo sapiens, EC-GI-10
Description: SANGER: Inhibition of human EC-GI-10 cell growth in a cell viability assay.

[24] = tested on: P30-OHK; assay type: functional, cell-based, Homo sapiens; conditions: Homo sapiens, P30-OHK;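 note: growth inhibition of the P30-OHK cell line, read out with a cell viability assay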
Description: SANGER: Inhibition of human P30-OHK cell growth in a cell viability assay.

[25] = tested on: SCC-15; assay type: functional, cell-based, Homo sapiens; conditions: Homo sapiens, SCC-15;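 note: growth inhibition of SCC-15 cells, read out with a cell viability assay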
Description: SANGER: Inhibition of human SCC-15 cell growth in a cell viability assay.

[26] = tested on: ATN-1; assay type: functional, cell-based, Homo sapiens; conditions: Homo sapiens, ATN-1;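 note: growth inhibition of human ATN-1 cells, read out with a cell viability assay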
Description: SANGER: Inhibition of human ATN-1 cell growth in a cell viability assay.

[27] = tested on: KARPAS-299; assay type: functional, cell-based, Homo sapiens; conditions: Homo sapiens, KARPAS-299
Description: SANGER: Inhibition of human KARPAS-299 cell growth in a cell viability assay.

[28] = tested on: SNU-C2B; assay type: functional, cell-based, Homo sapiens; conditions: Homo sapiens, SNU-C2B;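 note: cell viability readout used to measure compound-driven suppression of SNU-C2B cell proliferation, IC50 marking half-maximal growth inhibition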
Description: SANGER: Inhibition of human SNU-C2B cell growth in a cell viability assay.

[29] = tested on: NB13; assay type: functional, cell-based, Homo sapiens; conditions: Homo sapiens, NB13;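 note: cell viability readout measuring growth inhibition of human NB13 cells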
Description: SANGER: Inhibition of human NB13 cell growth in a cell viability assay.

[30] = tested on: PSN1; assay type: functional, cell-based, Homo sapiens; conditions: Homo sapiens, PSN1;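 note: suppression of growth of human PSN1 cells, read out by a cell viability assay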
Description: SANGER: Inhibition of human PSN1 cell growth in a cell viability assay.

[31] = tested on: 697; assay type: functional, cell-based, Homo sapiens; conditions: Homo sapiens
Description: SANGER: Inhibition of human 697 cell growth in a cell viability assay.

[32] = tested on: DJM-1; assay type: functional, cell-based, Homo sapiens; conditions: Homo sapiens, DJM-1;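 note: growth inhibition of human DJM-1 cells, read out by a cell viability assay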
Description: SANGER: Inhibition of human DJM-1 cell growth in a cell viability assay.

[33] = tested on: NCI-H1304; assay type: functional, cell-based, Homo sapiens; conditions: Homo sapiens, NCI-H1304;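 note: growth inhibition of the cancer cell line, measured in a cell viability assay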
Description: SANGER: Inhibition of human NCI-H1304 cell growth in a cell viability assay.

[34] = tested on: CTV-1; assay type: functional, cell-based, Homo sapiens; conditions: Homo sapiens, CTV-1;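 note: growth inhibition of the cell line, read out with a cell viability assay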
Description: SANGER: Inhibition of human CTV-1 cell growth in a cell viability assay.

[35] = tested on: TE-9; assay type: functional, cell-based, Homo sapiens; conditions: Homo sapiens, TE-9;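 note: cell growth inhibition, measured with a cell viability readout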
Description: SANGER: Inhibition of human TE-9 cell growth in a cell viability assay.

[36] = tested on: SNU-5; assay type: functional, cell-based, Homo sapiens; conditions: Homo sapiens, SNU-5;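 note: cell viability readout used to measure growth inhibition in human NCI-SNU-5 cells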
Description: SANGER: Inhibition of human NCI-SNU-5 cell growth in a cell viability assay.

[37] = tested on: BT-474; assay type: functional, cell-based, Homo sapiens; conditions: Homo sapiens, BT-474
Description: SANGER: Inhibition of human BT-474 cell growth in a cell viability assay.

[38] = tested on: SW 954; assay type: functional, cell-based, Homo sapiens; conditions: Homo sapiens, SW 954;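 note: growth inhibition of SW954 human cancer cells, read out as cell viability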
Description: SANGER: Inhibition of human SW954 cell growth in a cell viability assay.

[39] = tested on: SBC-1; assay type: functional, cell-based, Homo sapiens; conditions: Homo sapiens, SBC-1;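 note: cell viability assay measuring growth inhibition of the SBC-1 cell line, IC50 being the concentration that halves growth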
Description: SANGER: Inhibition of human SBC-1 cell growth in a cell viability assay.

[40] = tested on: HCC1187; assay type: functional, cell-based, Homo sapiens; conditions: Homo sapiens, HCC1187;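 note: growth inhibition of HCC1187 cells, read out with a cell viability assay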
Description: SANGER: Inhibition of human HCC1187 cell growth in a cell viability assay.

[41] = tested on: GT3TKB; assay type: functional, cell-based, Homo sapiens; conditions: Homo sapiens, GT3TKB;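 note: growth inhibition of the cell line, read out with a cell viability assay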
Description: SANGER: Inhibition of human GT3TKB cell growth in a cell viability assay.

[42] = tested on: NCI-H209; assay type: functional, cell-based, Homo sapiens; conditions: Homo sapiens, NCI-H209;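 note: growth inhibition of human NCI-H209 cells, measured by a cell viability assay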
Description: SANGER: Inhibition of human NCI-H209 cell growth in a cell viability assay.

[43] = tested on: KS-1; assay type: functional, cell-based, Homo sapiens; conditions: Homo sapiens, KS-1;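 note: growth inhibition of KS-1 cells, read out with a cell viability assay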
Description: SANGER: Inhibition of human KS-1 cell growth in a cell viability assay.

[44] = tested on: Ramos-2G6-4C10; assay type: functional, cell-based, Homo sapiens; conditions: Homo sapiens, Ramos-2G6-4C10;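 note: growth inhibition of the cell line, measured by a cell viability read-out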
Description: SANGER: Inhibition of human Ramos-2G6-4C10 cell growth in a cell viability assay.

[45] = tested on: SK-N-FI; assay type: functional, cell-based, Homo sapiens; conditions: Homo sapiens, SK-N-FI;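 note: cell viability assay measuring growth inhibition of human SK-N-FI cells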
Description: SANGER: Inhibition of human SK-N-FI cell growth in a cell viability assay.

[46] = tested on: ES4; assay type: functional, cell-based, Homo sapiens; conditions: Homo sapiens, ES4;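 note: growth inhibition of human ES4 cells, read out by a cell viability assay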
Description: SANGER: Inhibition of human ES4 cell growth in a cell viability assay.

[47] = tested on: EW-16; assay type: functional, cell-based, Homo sapiens; conditions: Homo sapiens, EW-16;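 note: growth inhibition of human EW-16 cells, read out as cell viability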
Description: SANGER: Inhibition of human EW-16 cell growth in a cell viability assay.

[48] = tested on: TE-8; assay type: functional, cell-based, Homo sapiens; conditions: Homo sapiens, TE-8;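 note: growth inhibition of TE-8 cells, measured with a cell viability readout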
Description: SANGER: Inhibition of human TE-8 cell growth in a cell viability assay.

SMILES: CO[C@H]1C[C@@H]2CC[C@@H](C)[C@@](O)(O2)C(=O)C(=O)N2CCCC[C@H]2C(=O)O[C@H]([C@H](C)C[C@@H]2CC[C@@H](OC(=O)C(C)(CO)CO)[C@H](OC)C2)CC(=O)[C@H](C)/C=C(\C)[C@@H](O)[C@@H](OC)C(=O)[C@H](C)C[C@H](C)/C=C/C=C/C=C/1C [TEMSIROLIMUS]
- IC50 [1]: > 200 nM
- IC50 [2]: > 200 nM
- IC50 [3]: > 200 nM
- IC50 [4]: > 200 nM
- IC50 [5]: > 200 nM
- IC50 [6]: > 200 nM
- IC50 [7]: > 200 nM
- IC50 [8]: > 200 nM
- IC50 [9]: > 200 nM
- IC50 [10]: > 200 nM
- IC50 [11]: > 200 nM
- IC50 [12]: 60.1 nM
- IC50 [13]: 13.3 nM
- IC50 [14]: 58 nM
- IC50 [15]: 63.6 nM
- IC50 [16]: 1.49 nM
- IC50 [17]: 4.81 nM
- IC50 [18]: 111 nM
- IC50 [19]: 158 nM
- IC50 [20]: > 200 nM
- IC50 [21]: 19.3 nM
- IC50 [22]: 0.495 nM
- IC50 [23]: > 200 nM
- IC50 [24]: > 200 nM
- IC50 [25]: 128 nM
- IC50 [26]: > 200 nM
- IC50 [27]: > 200 nM
- IC50 [28]: > 200 nM
- IC50 [29]: > 200 nM
- IC50 [30]: > 200 nM
- IC50 [31]: 1.7 nM
- IC50 [32]: > 200 nM
- IC50 [33]: > 200 nM
- IC50 [34]: > 200 nM
- IC50 [35]: > 200 nM
- IC50 [36]: > 200 nM
- IC50 [37]: > 200 nM
- IC50 [38]: > 200 nM
- IC50 [39]: 0.444 nM
- IC50 [40]: > 200 nM
- IC50 [41]: 90.6 nM
- IC50 [42]: 153 nM
- IC50 [43]: 63.5 nM
- IC50 [44]: 0.342 nM
- IC50 [45]: > 200 nM
- IC50 [46]: 37.8 nM
- IC50 [47]: 28.6 nM
- IC50 [48]: > 200 nM

SMILES: Nc1cccc2c1CN(C1CCC(=O)NC1=O)C2=O (centres undefined) [LENALIDOMIDE]
- IC50 [1]: > 5000 nM
- IC50 [2]: > 5000 nM
- IC50 [3]: > 5000 nM
- IC50 [4]: > 5000 nM
- IC50 [5]: > 5000 nM
- IC50 [6]: > 5000 nM
- IC50 [7]: > 5000 nM
- IC50 [8]: > 5000 nM
- IC50 [9]: > 5000 nM
- IC50 [10]: > 5000 nM
- IC50 [11]: > 5000 nM
- IC50 [12]: > 5000 nM
- IC50 [13]: > 5000 nM
- IC50 [14]: > 5000 nM
- IC50 [15]: > 5000 nM
- IC50 [16]: > 5000 nM
- IC50 [17]: > 5000 nM
- IC50 [18]: > 5000 nM
- IC50 [19]: > 5000 nM
- IC50 [20]: > 5000 nM
- IC50 [21]: > 5000 nM
- IC50 [22]: > 5000 nM
- IC50 [23]: > 5000 nM
- IC50 [24]: > 5000 nM
- IC50 [25]: > 5000 nM
- IC50 [26]: > 5000 nM
- IC50 [27]: > 5000 nM
- IC50 [28]: > 5000 nM
- IC50 [29]: > 5000 nM
- IC50 [30]: > 5000 nM
- IC50 [31]: > 5000 nM
- IC50 [32]: > 5000 nM
- IC50 [33]: > 5000 nM
- IC50 [34]: > 5000 nM
- IC50 [35]: > 5000 nM
- IC50 [36]: > 5000 nM
- IC50 [37]: > 5000 nM
- IC50 [38]: > 5000 nM
- IC50 [39]: > 5000 nM
- IC50 [40]: > 5000 nM
- IC50 [41]: > 5000 nM
- IC50 [42]: > 5000 nM
- IC50 [43]: > 5000 nM
- IC50 [44]: > 5000 nM
- IC50 [45]: > 5000 nM
- IC50 [46]: > 5000 nM
- IC50 [47]: > 5000 nM
- IC50 [48]: > 5000 nM

SMILES: Cc1cn(-c2cc(NC(=O)c3ccc(C)c(Nc4nccc(-c5cccnc5)n4)c3)cc(C(F)(F)F)c2)cn1 [NILOTINIB]
- IC50 [1]: > 2000 nM
- IC50 [2]: > 2000 nM
- IC50 [3]: > 2000 nM
- IC50 [4]: > 2000 nM
- IC50 [5]: > 2000 nM
- IC50 [6]: > 2000 nM
- IC50 [7]: > 2000 nM
- IC50 [8]: > 2000 nM
- IC50 [9]: > 2000 nM
- IC50 [10]: > 2000 nM
- IC50 [11]: > 2000 nM
- IC50 [12]: > 2000 nM
- IC50 [13]: > 2000 nM
- IC50 [14]: > 2000 nM
- IC50 [15]: > 2000 nM
- IC50 [16]: > 2000 nM
- IC50 [17]: > 2000 nM
- IC50 [18]: > 2000 nM
- IC50 [19]: > 2000 nM
- IC50 [20]: > 2000 nM
- IC50 [21]: > 2000 nM
- IC50 [22]: > 2000 nM
- IC50 [23]: > 2000 nM
- IC50 [24]: > 2000 nM
- IC50 [25]: > 2000 nM
- IC50 [26]: > 2000 nM
- IC50 [27]: > 2000 nM
- IC50 [28]: > 2000 nM
- IC50 [29]: > 2000 nM
- IC50 [30]: > 2000 nM
- IC50 [31]: > 2000 nM
- IC50 [32]: > 2000 nM
- IC50 [33]: > 2000 nM
- IC50 [34]: > 2000 nM
- IC50 [35]: > 2000 nM
- IC50 [36]: > 2000 nM
- IC50 [37]: > 2000 nM
- IC50 [38]: > 2000 nM
- IC50 [39]: > 2000 nM
- IC50 [40]: > 2000 nM
- IC50 [41]: > 2000 nM
- IC50 [42]: > 2000 nM
- IC50 [43]: > 2000 nM
- IC50 [44]: > 2000 nM
- IC50 [45]: > 2000 nM
- IC50 [46]: > 2000 nM
- IC50 [47]: > 2000 nM
- IC50 [48]: > 2000 nM
